Data from patent US11643421B2, “Process for the preparation of tricyclic PI3K inhibitor compounds and methods for using the same for the treatment of cancer” (priority 2015, dated 2023).

Experiments:
pAKT [1] = assay: pAKT/tAKT in normal brain tissue; type: in vivo, female CD-1 mice
Experimental: The effect of compound IIIat on pAKT in normal brain tissue, expressed as the ratio of phosphorylated AKT (pAKT) to total AKT (tAKT) was evaluated. […] In the evaluation, female CD-1 mice were administered a single PO dose of the indicated compound. Brains and plasma were collected at the indicated time post-dose, from 3 animals at each time point. Individual brains were split in half for PD analysis and compound concentration measurement. The samples were stored at −70° C. and analyzed for total concentration. For PD analysis, cell extraction buffer (Invitrogen, Camarillo, Calif.) containing 10 mM Tris pH 7.4, 100 mM NaCl, 1 mM EDTA, 1 mM EGTA, 1 mM NaF, 20 mM Na4P2O7, 2 mM Na3VO4, 1% Triton X-100, 10% glycerol, 0.1% SDS, and 0.5% deoxycholate was supplemented with phosphatase, protease inhibitors (Sigma, St. Louis, Mo.) and 1 mM PMSF and added to frozen brain biopsies. […] Protein concentration was determined using BCA protein assay (Pierce, Rockford, Ill.). […] Licor Odyssey Infrared detection system (Licor, Lincoln, Nebr.) was used to assess and quantify protein expression. PI3K pathway markers were evaluated by immunoblotting using antibodies against pAkt^ser473 and total Akt (Invitrogen, Camarillo, Calif. and Cell Signaling, Danvers, Mass.). Inhibition of pAkt (%) was calculated by comparing pAkt signal with that measured in untreated mice.

[2] = In vivo pharmacokinetics IV and PO; parameters: species or system beagle dogs; conditions: Dog
Experimental: The hepatocyte stability of compound IIIat was evaluated across preclinical species. Certain in vivo pharmacokinetic parameters were also evaluated. […] Male Sprague-Dawley rats, female CD-1 mice, male cynomolgus monkeys and beagle dogs were dosed intravenously with 1 mg/kg of compound IIIat prepared in 60% PEG400/10% Ethanol. Compound IIIat was administered orally (PO) at the indicated dose in 0.5% methylcellulose with 0.2% Tween 80 (MCT).

EphA4 = EphA4 (Homo sapiens, UniProt P54764); assay: biochemical; conditions: read-out: % inhib
Chain of EphA4 (P54764 20-986, species assumed): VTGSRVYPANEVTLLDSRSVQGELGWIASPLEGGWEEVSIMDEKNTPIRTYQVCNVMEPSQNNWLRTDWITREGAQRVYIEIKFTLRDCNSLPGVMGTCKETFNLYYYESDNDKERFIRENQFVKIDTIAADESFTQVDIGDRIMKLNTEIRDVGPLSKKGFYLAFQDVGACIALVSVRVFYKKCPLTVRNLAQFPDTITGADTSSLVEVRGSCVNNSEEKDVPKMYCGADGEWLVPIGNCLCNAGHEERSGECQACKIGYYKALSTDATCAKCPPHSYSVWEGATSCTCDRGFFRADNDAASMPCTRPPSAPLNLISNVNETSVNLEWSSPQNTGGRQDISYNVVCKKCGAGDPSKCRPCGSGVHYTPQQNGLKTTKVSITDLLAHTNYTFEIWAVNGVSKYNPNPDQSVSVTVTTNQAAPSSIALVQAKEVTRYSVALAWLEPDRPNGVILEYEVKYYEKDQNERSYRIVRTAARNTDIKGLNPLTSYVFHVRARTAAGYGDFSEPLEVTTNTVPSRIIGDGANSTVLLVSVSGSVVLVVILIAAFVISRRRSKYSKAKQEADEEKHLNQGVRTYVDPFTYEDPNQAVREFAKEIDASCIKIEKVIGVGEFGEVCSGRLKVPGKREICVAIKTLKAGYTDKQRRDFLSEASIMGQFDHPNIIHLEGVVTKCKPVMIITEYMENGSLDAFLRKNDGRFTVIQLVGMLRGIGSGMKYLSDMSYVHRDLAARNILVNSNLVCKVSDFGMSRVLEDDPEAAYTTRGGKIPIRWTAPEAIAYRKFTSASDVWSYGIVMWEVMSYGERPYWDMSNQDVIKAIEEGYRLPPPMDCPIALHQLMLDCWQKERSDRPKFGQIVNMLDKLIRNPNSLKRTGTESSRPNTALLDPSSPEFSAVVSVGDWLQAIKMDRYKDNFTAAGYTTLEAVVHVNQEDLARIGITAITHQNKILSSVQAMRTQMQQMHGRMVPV

mouse P-gp (mdr1a) = mouse P-gp (mdr1a) (Mus musculus, UniProt P21447); assay: Transport assay in Mdr1a-LLC-PK1 cell monolayers; type: in vitro ADME; conditions: Mdr1a-LLC-PK, 2-hour incubation
Chain of mouse P-gp (mdr1a) (P21447 whole entry): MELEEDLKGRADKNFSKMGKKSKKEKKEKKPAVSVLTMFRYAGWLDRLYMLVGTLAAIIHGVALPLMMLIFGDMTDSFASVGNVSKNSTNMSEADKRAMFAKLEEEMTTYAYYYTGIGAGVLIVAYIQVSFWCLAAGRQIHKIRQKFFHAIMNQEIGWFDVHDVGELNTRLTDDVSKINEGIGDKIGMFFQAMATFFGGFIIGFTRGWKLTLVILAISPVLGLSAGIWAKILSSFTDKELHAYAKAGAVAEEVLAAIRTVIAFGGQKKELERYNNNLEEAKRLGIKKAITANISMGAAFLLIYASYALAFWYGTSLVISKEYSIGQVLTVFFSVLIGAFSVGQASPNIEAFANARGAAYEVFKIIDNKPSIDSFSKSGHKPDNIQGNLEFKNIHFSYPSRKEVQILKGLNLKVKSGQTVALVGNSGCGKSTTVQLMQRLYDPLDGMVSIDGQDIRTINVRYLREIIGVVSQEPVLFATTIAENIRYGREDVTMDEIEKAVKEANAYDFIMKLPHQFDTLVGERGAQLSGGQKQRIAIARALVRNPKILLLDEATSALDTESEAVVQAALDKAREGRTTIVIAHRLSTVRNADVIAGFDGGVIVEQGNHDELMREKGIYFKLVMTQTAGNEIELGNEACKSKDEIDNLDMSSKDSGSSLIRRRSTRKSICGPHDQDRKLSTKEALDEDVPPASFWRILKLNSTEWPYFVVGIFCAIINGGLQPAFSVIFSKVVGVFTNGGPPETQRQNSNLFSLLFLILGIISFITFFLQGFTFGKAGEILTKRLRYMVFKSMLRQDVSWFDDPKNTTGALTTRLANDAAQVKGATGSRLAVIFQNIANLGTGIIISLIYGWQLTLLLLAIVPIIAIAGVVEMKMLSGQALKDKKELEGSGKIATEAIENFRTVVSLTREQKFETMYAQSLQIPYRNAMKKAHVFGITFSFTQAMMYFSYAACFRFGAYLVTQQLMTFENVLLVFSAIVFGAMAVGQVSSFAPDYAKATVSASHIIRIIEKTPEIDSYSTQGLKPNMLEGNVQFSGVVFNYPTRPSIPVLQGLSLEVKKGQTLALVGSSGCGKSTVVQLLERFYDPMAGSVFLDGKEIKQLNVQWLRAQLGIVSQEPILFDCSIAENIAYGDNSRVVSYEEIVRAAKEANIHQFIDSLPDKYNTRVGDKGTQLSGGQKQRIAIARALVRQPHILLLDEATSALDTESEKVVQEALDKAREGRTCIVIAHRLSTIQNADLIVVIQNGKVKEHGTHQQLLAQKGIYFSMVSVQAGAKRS
Experimental: (§1) MDR1-MDCKI cells were licensed from the NCI (National Cancer Institute, Bethesda, Md.) and Bcrp1-MDCKII, BCRP-MDCKII and Mdr1a-LLC-PK1 cells were obtained from the Netherlands Cancer Institute (Amsterdam. The Netherlands). […] The compound was dissolved in transport buffer consisting of Hank's balanced salt solution (HBSS) with 10 mM HEPES (Invitrogen Corporation, Grand Island, N.Y.). Lucifer Yellow (Sigma-Aldrich, St. Louis, Mo.) was used as the paracellular and monolayer integrity marker. […] The efflux ratio (ER) was calculated (Papp, B-A/Papp, A-B).

ErbB4 = ErbB4 (Homo sapiens, UniProt Q15303); assay: biochemical; conditions: read-out: % inhib
Chain of ErbB4 (Q15303 26-1308): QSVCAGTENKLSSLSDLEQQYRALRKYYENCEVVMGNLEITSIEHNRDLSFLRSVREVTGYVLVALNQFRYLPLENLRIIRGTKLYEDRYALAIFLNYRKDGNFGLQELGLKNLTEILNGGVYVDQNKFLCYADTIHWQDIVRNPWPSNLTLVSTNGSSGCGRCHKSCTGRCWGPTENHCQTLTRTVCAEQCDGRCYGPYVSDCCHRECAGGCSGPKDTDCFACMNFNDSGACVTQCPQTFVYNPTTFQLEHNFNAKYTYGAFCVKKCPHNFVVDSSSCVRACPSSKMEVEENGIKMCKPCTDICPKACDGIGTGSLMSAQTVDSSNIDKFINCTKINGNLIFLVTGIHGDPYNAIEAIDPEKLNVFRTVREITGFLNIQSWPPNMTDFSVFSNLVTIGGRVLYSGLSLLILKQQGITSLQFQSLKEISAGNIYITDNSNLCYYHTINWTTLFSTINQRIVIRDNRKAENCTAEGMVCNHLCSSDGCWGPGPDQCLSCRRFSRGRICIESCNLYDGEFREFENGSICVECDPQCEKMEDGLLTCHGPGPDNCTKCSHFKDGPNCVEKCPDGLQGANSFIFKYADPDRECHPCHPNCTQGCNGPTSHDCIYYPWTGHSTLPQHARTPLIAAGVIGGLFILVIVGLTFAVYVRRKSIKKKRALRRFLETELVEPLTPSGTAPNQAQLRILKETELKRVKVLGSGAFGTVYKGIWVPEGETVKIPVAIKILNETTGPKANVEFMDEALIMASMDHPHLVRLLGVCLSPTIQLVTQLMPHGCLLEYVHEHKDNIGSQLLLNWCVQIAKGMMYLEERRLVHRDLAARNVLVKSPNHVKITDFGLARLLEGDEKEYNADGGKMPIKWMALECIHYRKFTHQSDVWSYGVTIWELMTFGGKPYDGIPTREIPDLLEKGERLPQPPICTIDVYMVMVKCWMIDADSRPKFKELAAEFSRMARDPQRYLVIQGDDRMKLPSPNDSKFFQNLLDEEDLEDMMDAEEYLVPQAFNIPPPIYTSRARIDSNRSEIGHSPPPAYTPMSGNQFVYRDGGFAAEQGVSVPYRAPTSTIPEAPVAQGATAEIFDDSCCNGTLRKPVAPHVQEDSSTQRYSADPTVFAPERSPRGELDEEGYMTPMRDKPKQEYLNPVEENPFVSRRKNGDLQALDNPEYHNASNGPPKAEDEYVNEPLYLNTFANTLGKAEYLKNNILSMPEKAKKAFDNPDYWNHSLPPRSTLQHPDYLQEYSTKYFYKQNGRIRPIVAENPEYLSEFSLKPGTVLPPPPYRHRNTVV

P-gp and BCRP = assay: Transport assays in cell monolayers, overall; type: in vitro ADME
Experimental: as §1

pAKT [3] = assay: pAKT/total AKT in U87 MG/M xenograft tumors; type: in vivo, mice; conditions: 0.5, 3, 10, 18 mg/kg, 24 days continuous dosing, 1 hour and 4 hours post dose
Experimental: The effect of compound IIIat on the pharmacodynamics (PD) marker pAKT in the U87 MG/M human glioblastoma xenograft model after 24 days of continuous dosing at dosage rates of 0.5 mg/kg, 3 mg/kg, 10 mg/kg and 18 mg/kg was evaluated. Tumors were excised from animals 1 hour and 4 hours after the last administered dose on day 24 and processed for analysis of pAKT and total AKT. The results are reported in FIG. 4 as a ratio of pAKT to total AKT wherein indicated values are the means for groups of 3 animals and error bars indicate ±standard error of the mean. Levels of pAKT^Ser473 and total AKT were measured by electrochemiluminescence using Meso Scale Discovery according to manufacturer's instructions (Gaithersburg, Md.).

[4] = Plasma protein binding by equilibrium dialysis; type: in vitro ADME; conditions: mouse, plasma (pooled), pH 7.4, n=3, mean±standard deviation, read-out: free fraction (%) in mouse plasma
Experimental: Plasma samples were equilibrated with phosphate-buffered saline (pH 7.4) at 37° C. in 90% humidity and 5% CO2 for 4 hours. […] Incubations were performed in triplicate. Parameters are presented as mean±standard deviation.

In the case of `CC1(C)OCCn2c1nc1c(N3CCOCC3)nc(-c3cnc(N)nc3)nc12` [GDC-0084, 5-(6,6-dimethyl-4-morpholino-8,9-dihydro-6H-[1,4]oxazino[3,4-e]purin-2-yl)pyrimidin-2-amine], the “pAKT in normal mouse brain tissue” value (pAKT [1]; 3 mg/kg or 10 mg/kg orally, 1 h post-dose) is reported as “inhibited”, the “pAKT in normal mouse brain tissue” value (pAKT [1]; 3 mg/kg orally, 4 hours post-dose) is reported as “no longer resulted in inhibition of pAKT” and the AUC ([2]; PO 2 mg/kg in MCT) is reported as 1.6 μm·h. It also gave a Cmax ([2]; PO 2 mg/kg in MCT) of 0.2 μm, a clearance ([2]; beagle, plasma, IV 1 mg/kg, read-out: In vivo Cl) of 26 mL/min/kg and a Vd ([2]; beagle, plasma, IV 1 mg/kg, read-out: Vss) of 3 L/kg. The bioavailability ([2]; beagle, plasma, PO 2 mg/kg in MCT) was 40%, the inhibition at 1 µM (EphA4) was 3% and the Papp B→A at 2 h, 5 μM (mouse P-gp (mdr1a)) was 19.4 ± 1.3 ×10⁻⁶ cm/s. For the same compound, the inhibition at 1 µM (ErbB4) was 7%, the “substrate of efflux transporters” value (P-gp and BCRP; efflux ratios in MDCK or LLC-PK1 transfected cells) was “poor substrate of the efflux transporters P-gp and BCRP” and the “apparent permeability (Papp), in words” value (P-gp and BCRP; transfected MDCK and LLC-PK1 cells) was “high and comparable to that of metoprolol”. For the same compound, the “inhibition of pAKT (pAKT/total AKT) in U87 tumors” value (pAKT [3]) was “Dose and concentration dependent inhibition of pAKT” and the fraction unbound at 4 h, 5 µM [4] was 0.295 ± 0.027.
